Each block holds one compound with its values, some of them ahead of it.
What was measured:
[1] = tested on: human panelists (which sample is sweeter); assay: Sweet flavor and sweet flavor enhancement, human panelists, paired comparison test; format: in vivo
Experimental: Test samples containing experimental compounds are presented in pairs to the panelist and they are asked to determine which of the sample is sweeter. A group of 10-16 or more panelists participated in each test. Subjects refrained from eating or drinking (except water) for at least 1 hour prior to the test. Subjects rinsed with water several times to clean the mouth.
All samples are prepared with ethanol to ensure dispersion of the compound in solution. This includes samples without compound; all solutions are balanced for 0.1% ethanol.
Samples are also prepared with low sodium buffer (pH 7.1) in place of water. Buffer contains 0.952 g of KCl, 5.444 g of Na2HPO4, and 0.952 g of KH2PO4 in 40 L of DIUF water. Sample volumes are usually 20 ml.
In one paired comparison test, the panelist is presented with two different samples and asked to identify the sample which is sweeter. The samples within a paired comparison test are presented in a randomized, counterbalanced order. Panelists have up to a 1 minute delay between taste tests to clear the mouth of any tastes.
Binomial probability tables are used to determine the probability of the correct number of responses occurring for each test at alpha=0.05.

[2] = tested on: human panelists (perceived sweetness intensity); assay: Sweet flavor and sweet flavor enhancement, human panelists, scaling test; format: in vivo; details: for Average sweetness score (line scale 0 to 15): Table 29; for Average Sweetness: Table 36, n = 13
Description: Test samples containing experimental compounds were compared to a dose-response curve for perceived sweetness intensity of sweeteners (such as, for example, sucralose, sucrose, fructose and other sweeteners) concentrations to determine equivalent sweetness intensity.
A group of eight or more panelists tasted solutions including sweeteners at various concentrations, as well as the experimental compound both with and without added sweetener. Panelists then rated sweetness intensity of all samples on a structured horizontal line scale, anchored from 0 to 15, where 0 equals no sweetness and 15 equals equivalent sweetness to a 15% sucrose sample. Scores for sweetness intensity were averaged across panelists. Then using the average scores and/or equation of the line for the sweetener dose-response curve, equivalent sweetness concentrations were determined for the samples containing experimental compounds.
Subjects had been previously familiarized with the key attribute taste and were trained to use the 0 to 15 point line scale. Subjects refrained from eating or drinking (except water) for at least 1 hour prior to the test. Subjects ate a cracker and rinsed with water several times to clean the mouth.
Sweetener solutions are provided at a wide range of concentrations such as 100 ppm, 200 ppm, 300 ppm, 400 ppm, and 500 ppm for sucralose, or between 0% and 12% for sucrose or fructose, in order to create a dose-response curve. Samples containing experimental compound were prepared both alone and in a 100 ppm sucralose solution or a 6% sucrose or fructose solution. All samples were made up in low sodium buffer pH 7.1. In order to aid dispersion, solutions can be made up in 0.1% ethanol.
The solutions were dispensed in 20 ml volumes into 1 oz. sample cups and served to the subjects at room temperature. All samples were presented in randomized counterbalanced order to reduce response bias. Further, two sessions of testing may be used to check panel precision.
Subjects tasted each sample individually and rate sweetness intensity on the line scale prior to tasting the next sample. All samples were expectorated. Subjects may retaste the samples but can only use the volume of sample given. Subjects must rinse with water between samples. Eating an unsalted cracker between samples may be required depending on the samples tasted.
The scores for each sample were averaged across subjects and standard error was calculated. The dose-response curve was plotted graphically, and this may be used to ensure the panel is rating accurately; i.e., increasing the concentration of sucralose should correspond to increased average scores for sweetness. A 2-way ANOVA (factors being samples and panelists) and multiple comparison tests (such as Tukey's Honestly Significant Difference test) can be used to determine differences among samples and/or panelists. A 3-way ANOVA, with sessions as the third factor, can be used to determine if there is any difference in the ratings between sessions.

[3] = Table 35, 6% Fructose alone vs 6% Fructose + 100 μM C20, of n = 19

SMILES: Nc1nc(=O)[nH]c2sc3c(c12)CCOC3 [Compound 568]
Sample selected as more sweet by panelists, Total ([1]; Table 33, 6% Fructose + 100 μM compound vs 6% Fructose, of n = 26 (13 panelists × 2 reps)): 20

SMILES: Cc1sc2[nH]c(=S)nc(N)c2c1C [Example 1, 4-Amino-5,6-dimethylthieno[2,3-d]pyrimidine-2(1H)-thione]
melting point: > 260 °C

SMILES: O=C(CO)[C@@H](O)[C@H](O)[C@H](O)CO [Fructose, fructose]
Average sweetness score (line scale 0 to 15) ([2]; 6% fructose alone): 6.9
Average sweetness score (line scale 0 to 15) ([2]; 8% fructose alone): 8.6
Average sweetness score (line scale 0 to 15) ([2]; 9% fructose alone): 9.3
Average sweetness score (line scale 0 to 15) ([2]; 10% fructose alone): 9.5
Average Sweetness ([2]; 2% Fructose alone): 2.3
Average Sweetness ([2]; 4% Fructose alone): 4.2
Average Sweetness ([2]; 6% Fructose alone): 5.9
Sample selected as more sweet by panelists, Total ([1]; Table 33, 6% Fructose alone vs 6% Fructose + 100 μM compound, of n = 26): 6
Sample selected as more sweet by panelists, Total ([1]; Table 34, 6% Fructose alone vs 6% Fructose + 100 μM C19, of n = 24): 6
Sample selected as more sweet by panelists, Test 1 [1, 3]: 0
Sample selected as more sweet by panelists, Total [1, 3]: 0
Sample selected as more sweet by panelists, Test 1 ([1]; Table 37, 6% Fructose alone vs 6% fructose + 25 μM C21, of n = 25): 5
Sample selected as more sweet by panelists, Test 1 ([1]; Table 38, 7% Fructose alone vs 6% fructose + 25 μM C21, of n = 25): 13

SMILES: N#Cc1c(N)c2ccccc2[nH]c1=O [Example 71, 4-Amino-2-oxo-1,2-dihydroquinoline-3-carbonitrile]
melting point: > 250 °C

SMILES: Cc1cccc2[nH]c(=S)nc(N)c12 [Example 3, 4-Amino-5-methylquinazoline-2(1H)-thione]
melting point: > 250 °C

SMILES: N#Cc1c(Cl)c2ccccc2[nH]c1=O [Example 72, 4-chloro-2-oxo-1,2-dihydroquinoline-3-carbonitrile]
melting point: > 250 °C

SMILES: Nc1c(C(=O)O)c(=O)[nH]c2ccccc12 [Example 66, 4-Amino-2-oxo-1,2-dihydroquinoline-3-carboxylic acid]
melting point: > 250 °C

SMILES: COC(=O)c1c(N)c2ccccc2[nH]c1=O [Example 68, Methyl 4-amino-2-oxo-1,2-dihydroquinoline-3-carboxylate]
melting point: 236 °C

Second part, the compound after the results:

melting point: 221 °C
SMILES: O=C(NC1CCCCC1)c1c(O)c2ccccc2[nH]c1=O [Example 73, N-cyclohexyl-4-hydroxy-2-oxo-1,2-dihydroquinoline-3-carboxamide]

melting point: > 260 °C
SMILES: Nc1nc(=O)[nH]c2sc3c(c12)CCOC3 [Example 146, 4-Amino-5,6-(5′,7′-dihydro-4′H-[2′,3′-c]pyrano)thieno[2,3-d]-pyrimidine-2(1H)-one]

melting point: > 260 °C
SMILES: C/C=C/c1cccc2c1C(N)=NS(=O)(=O)N2 [Example 130, 4-Amino-5-((E)-prop-1-enyl)-1H-benzo[c][1,2,3]thiadiazine-2,2-dioxide]

melting point: 229 to 230 °C
SMILES: CCCOc1cccc2c1C(N)=NS(=O)(=O)N2 [Example 111, 4-Amino-5-(propyloxy)-1H-benzo[c][1,2,6]thiadiazine-2,2-dioxide]

melting point: 215 to 216 °C
SMILES: NC1=NS(=O)(=O)Nc2cccc(OC3CCCCC3)c21 [Example 168, 4-Amino-5-(cyclohexyloxy)-1H-benzo[c][1,2,6]thiadiazine-2,2-dioxide]

melting point: > 260 °C
SMILES: CC(C)=Cc1cccc2c1C(N)=NS(=O)(=O)N2 [Example 129, 4-Amino-5-(2-methylprop-1-enyl)-1H-benzo[c][1,2,3]thiadiazine-2,2-dioxide]

melting point: 235 to 236 °C
SMILES: CC(C)(COc1cccc2c1C(N)=NS(=O)(=O)N2)NC(=O)c1ccccc1 [Example 216, N-(1-(4-amino-2,2-dioxide-1H-benzo[c][,6]thiadiazin-5-yloxy)-2′-methylpropan-2′-yl)benzamide]
